Patent US20230166255A1, “Methods And Devices For Detection Of Anticoagulants In Plasma And Whole Blood” (Massachusetts Institute of Technology, priority 2017, published 2023)
Read-outs that look alike come from different tables or passages of the source.

Legend:
[1] = target: FXa (Homo sapiens, UniProt P00742); test: Clotting curves: clot detection time versus FXa agonist gradient (FIGS. 7A-7C); type: biochemical
Protocol: (§1) Clot detection agents can include fluorescent labeled fibrinogen, magnets, beads (may be fluorescent or colored) • b) Load into microfluidic device • i. See, e.g., FIGS. 1A-1D, 2A and 2B for examples of input loading configuration and order • c) Temperature control • i. Room temperature • ii. May increase up to 37° C.
(§2) The time it takes for each of the combinations to form a clot is then plotted. […] Concentration of the agonist (FXa for FIGS. 7A-7C, and FIIa for FIG. 7D) is plotted on the X-axis for each of the figures.

[2] = target: FIIa (Homo sapiens, UniProt P00734)
Protocol: as §1, §2

[3] = target: Factor Xa (Homo sapiens, UniProt P00742); test: Clot detection in whole blood in parallel microfluidic channel device pre-coated with Factor Xa; type: biochemical; settings: whole blood with unfractionated heparin, 10 minutes
Chain of Factor Xa (P00742 235-488 limits assumed): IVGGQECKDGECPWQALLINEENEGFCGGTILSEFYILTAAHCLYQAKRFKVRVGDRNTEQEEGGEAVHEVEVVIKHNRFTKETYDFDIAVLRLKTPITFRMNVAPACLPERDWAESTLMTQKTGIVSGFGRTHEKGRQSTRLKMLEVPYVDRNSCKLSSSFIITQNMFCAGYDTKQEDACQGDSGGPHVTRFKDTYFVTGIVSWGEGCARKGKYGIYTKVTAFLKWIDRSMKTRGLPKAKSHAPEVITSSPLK
Chain of Factor Xa (P00742 41-179 partner limits assumed): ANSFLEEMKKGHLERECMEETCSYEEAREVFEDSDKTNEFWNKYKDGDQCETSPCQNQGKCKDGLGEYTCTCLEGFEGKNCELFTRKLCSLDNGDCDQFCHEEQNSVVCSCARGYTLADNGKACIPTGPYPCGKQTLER
Protocol: FIGS. 4A and 4B are fluorescent images illustrating clot detection using whole blood in a parallel microfluidic channel device 410 according to an example embodiment. Microfluidic channels 420 were pre-coated with agonist, Factor Xa, at various concentrations (7.5 ng/mL, 75 ng/mL, 750 ng/mL) or with buffer alone (negative control). The fluorescent images are taken at one time point (10 minutes). Microfluidic channels were washed with buffer prior to use to leave only bound FXa within the microfluidic channel. Fresh whole blood was placed into each input port and the blood was drawn in through capillary action. The blood was left to flow for 10 minutes and then the channel was gently washed with buffer. Depicted is a brightfield image of two samples evaluated. […] Unfractionated heparin inhibits Factors IIa and Xa in an antithrombin III-dependent fashion, which is why the addition of these factors at appropriate concentrations can help recover the clotting capability of the sample.

Chain of FXa (P00742 235-488 limits assumed): as the sequence (P00742 235-488 limits assumed) above
Chain of FXa (P00742 41-179 partner limits assumed): as the sequence (P00742 41-179 partner limits assumed) above

## O=C(NC[C@H]1CN(c2ccc(N3CCOCC3=O)cc2)C(=O)O1)c1ccc(Cl)s1 [Rivaroxaban]
[1]; 250 ng/mL Rivaroxaban, agonist (FXa) concentration down to 375 ng/mL
  clot formation time: significantly longer than the negative control but lower than 500 ng/mL
[1]; 500 ng/mL Rivaroxaban, agonist (FXa) down to 750 ng/mL
  clot formation detected (time): < 2.5 min

## Dabigatran
[2]; 250 ng/mL Dabigatran, agonist (FIIa) concentration down to 710 ng/mL
  clot formation detected (time): < 2.5 min
[2]; 500 ng/mL Dabigatran, agonist (FIIa) down to 710 ng/mL
  clot formation detected (time): < 2.5 min
[2]; < 25 ng/mL Dabigatran, agonist (FIIa) concentration down to 71 ng/mL
  clot formation detected (time): < 2.5 min

## unfractionated heparin
[3]; channels coated with 7.5, 75, 750 ng/mL FXa
  clot formation: gradient of clot formation dependent on the concentration of FXa in the channel
[3]; negative control channel (buffer alone, no FXa)
  clot formation: minimal clot formation
